In brackets after ≈: the same amount, converted by molar mass. Counter-ions that a name gives are not always drawn. Like-named read-outs stand apart in the source and are kept apart here.
Experiments:
HIV [1] = assay: microbe, parasite or virus in culture; assay type: cell-based; settings: for S.I. (selective index, CC50 /EC50): CC50 = 50% growth inhibition of non-infected cells, 7200 min; for EC50: Human immunodeficiency virus 1, MT4, 120 h, 50% CPE inhibition in HIV infected MT-4 cells, 5 days, 37° C.
Source text: Exponentially growing MT-4 cells were centrifuged, and the pellets were resuspended in RPMI-1640 medium containing 10% fetal serum (serum medium). Portions of the cell suspension were either inoculated with HIV, or left uninfected. Serum medium was then further added to the suspensions, which were then washed and centrifuged. The resulting pellets were then suspended in serum medium to a concentration of 4×10^5 cells/mi. Preparations of the test compound (in serum medium) were […] in a stepwise manner, and 100 μl of each of the solutions were placed in separated wells of a 96-well plastic microtitre plate. 100 μl of each of the cell suspensions (infected and non-infected) were then added to the wells, so that each dilution of each of the test compounds was tested against both infected and noninfected cells. Blanks (not added either of the cells) were also prepared. The preparations were then cultured by standing the plate at 37° C. for 5 days in the presence of 5 % carbon dioxide gas.
At the end of this time, living cells were assayed for CPE inhibitory activity by the spectrophotometric assay of the blue formazan produced by the reduction of MTT [3-(4,5-dimethylthiazol-2-yl) -2,5-diphenyl-tetrazolium bromide]which was added to the preparations.
CPE inhibitory activity was defined as 100% in non-infected cells to which no test compounds had been added, while CPE inhibitory activity was defined as 0% in infected cells to which test compounds had not been added.

HIV [2] = settings: literature / WO-A-90-13542; cited from earlier work

| Compound | S.I. (selective index, CC50 /EC50) (HIV [1]) | EC50 (HIV [1]) | anti-HIV activity (in words) (HIV [1]; Pauwel method) | anti-HIV activity (reported) (HIV [2]) | anti-HIV activity (in words) (HIV [1]) |
| --- | --- | --- | --- | --- | --- |
| CCn1cc(C(=O)O)c(=O)c2cc(F)c(N3CCN(c4ncccn4)CC3)nc21 [Example 92] | 31 | 0.8 µg/mL (≈ 2.01 µM) | – | – | – |
| O=C(O)c1cn(C2CC2)c2c(OC(F)F)c(N3CCN(c4nc5ccccc5o4)CC3)c(F)cc2c1=O [Example 21] | 16 | 0.037 µg/mL (≈ 0.0719 µM) | – | – | – |
| CCn1cc(C(=O)O)c(=O)c2cc(F)c(N3CCNC(C)C3)c(F)c21 (stereo not drawn) [Lomefloxacin, reference compound] | – | – | little or no anti-HIV activity | anti-HIV activity | – |
| O=C(O)c1cn(C2CC2)c2cc(N3CCNCC3)c(F)cc2c1=O [Ciprofloxacin, reference compound] | – | – | – | anti-HIV activity | little or no anti-HIV activity |
| COc1cccc(N2CCN(c3c(F)cc4c(=O)c(C(=O)O)cn(C5CC5)c4c3OC(F)F)CC2)c1 [Example 7] | 113 | 0.22 µg/mL (≈ 0.437 µM) | – | – | – |
| CCn1cc(C(=O)O)c(=O)c2cc(F)c(N3CCN(c4ncccn4)CC3)c(OC(F)F)c21 [Example 67, 1-ethyl-6-fluoro-8-difluoromethoxy-7-[4-(2-pyrimidinyl)piperazin-1-yl]-1,4-dihydro-4-oxoquinoline-3-carboxylic acid] | > 500 | 0.08 µg/mL (≈ 0.173 µM) | – | – | – |
| COc1ccccc1N1CCN(c2c(F)cc3c(=O)c(C(=O)O)cn(CCF)c3c2OC(F)F)CC1 [Example 38] | 79 | 0.07 µg/mL (≈ 0.137 µM) | – | – | – |
| CC1Sc2c(C(=O)O)c(=O)c3cc(F)c(N4CCN(c5ncccn5)CC4)cc3n21 (stereo not drawn) [Example 100, 6-fluoro-1-methyl-4-oxo-7-[4-(2-pyrimidinyl)piperazin-1-yl]-1H, 4H-[1,3]thiazeto[3,2-a]quinoline-3-carboxylic acid] | 9 | 0.4 µg/mL (≈ 0.936 µM) | – | – | – |
| CNn1cc(C(=O)O)c(=O)c2cc(F)c(N3CCN(c4ncccn4)CC3)c(OC(F)F)c21 [Example 53] | > 83 | 0.3 µg/mL (≈ 0.646 µM) | – | – | – |
| CN1CCN(c2cc3c(cc2F)c(=O)c(C(=O)O)cn3-c2ccc(F)cc2)CC1 [Difloxacin, reference compound] | – | – | little or no anti-HIV activity | anti-HIV activity | – |
| NC1CCN(c2nc3c(cc2F)c(=O)c(C(=O)O)cn3-c2ccc(F)cc2F)C1 (stereo not drawn) [Tosufloxacin, reference compound] | – | – | little or no anti-HIV activity | anti-HIV activity | – |
| C[C@H]1COc2c(N3CCN(C)CC3)c(F)cc3c(=O)c(C(=O)O)cn1c23 [DR-3355, reference compound] | – | – | have failed | Anti-HIV activity has recently been reported | – |
| COc1ccc(N2CCN(c3c(F)cc4c(=O)c(C(=O)O)cn(C5CC5)c4c3OC(F)F)CC2)cc1 [Example 8, 1-cyclopropyl-6-fluoro-8-difluoromethoxy-7-[4-(4-methoxyphenyl)piperazin-1-yl]-1,4-dihydro-4-oxoquinoline-3carboxylic acid] | 500 | 0.1 µg/mL (≈ 0.199 µM) | – | – | – |
| O=C(O)c1cn(C2CC2)c2c(OC(F)F)c(N3CCN(c4ccccc4)CC3)c(F)cc2c1=O [Example 2, 1-cyclopropyl-6-fluoro-8-difluoromethoxy-7-(4-phenylpiperazin-1-yl)-1,4-dihydro-4-oxoquinoline-3-carboxylic acid] | 100 | 0.03 µg/mL (≈ 0.0634 µM) | – | – | – |
| O=C(O)c1cn(C2CC2)c2c(OC(F)F)c(N3CCN(c4ccc(F)cc4)CC3)c(F)cc2c1=O [Example 6] | 34 | 0.02 µg/mL (≈ 0.0407 µM) | – | – | – |
| CCn1cc(C(=O)O)c(=O)c2cc(F)c(N3CCN(c4ncccn4)C(C)C3)c(OC(F)F)c21 (stereo not drawn) [Example 94, 1-ethyl-6-fluoro-8-difluoromethoxy-7-[3-methyl-4-(2-pyrimidinyl)piperazin-1-yl]-1,4-dihydro-4-oxoquinoline-3-carboxylic acid] | 21 | 0.5 µg/mL (≈ 1.05 µM) | – | – | – |
| O=C(O)c1cn2c3c(c(N4CCN(c5ncccn5)CC4)c(F)cc3c1=O)OCC2CF (stereo not drawn) [Example 87, 9-fluoro-3-fluoromethyl-10-[4-(2-pyrimidinyl)piperazin-1yl]-2,3-dihydro-7-oxo-7H -pyrido[1,2,3-de][1,4]benzoxazine-6-carboxylic acid] | > 512 | 0.074 µg/mL (≈ 0.167 µM) | – | – | – |

| Compound | S.I. (selective index, CC50 /EC50) (HIV [1]) | EC50 (HIV [1]) | anti-HIV activity (in words) (HIV [1]; Pauwel method) | anti-HIV activity (reported) (HIV [2]) | anti-HIV activity (in words) (HIV [1]) |
| --- | --- | --- | --- | --- | --- |
| O=C(O)c1cn(C2CC2)c2c(OC(F)F)c(N3CCN(c4ncccc4[N+](=O)[O-])CC3)c(F)cc2c1=O [Example 17] | 250 | 0.5 µg/mL (≈ 0.963 µM) | – | – | – |
| CCn1cc(C(=O)O)c(=O)c2cc(F)c(N3CCN(c4cnccn4)CC3)c(OC(F)F)c21 [Example 37] | > 109 | 0.23 µg/mL (≈ 0.496 µM) | – | – | – |
| COc1ccccc1N1CCN(c2c(F)cc3c(=O)c(C(=O)O)cn(C4CC4)c3c2OC(F)F)CC1 [Example 1, 1-cyclopropyl-6-fluoro-8-difluoromethoxy-7-[4-(2-methoxyphenyl)piperazin-1-yl]-1,4-dihydro-4-oxoquinoline-3-carboxylic acid.hydrochloride] | 400 | 0.015 µg/mL | – | – | – |
| COc1ccccc1N1CCN(c2c(F)cc3c(=O)c(C(=O)O)cn(CCOC(C)=O)c3c2OC(F)F)CC1 [Example 46, 1-(2-acetoxyethyl)-6-fluoro-8-difluoromethoxy-7-[4-(2-methoxyphenyl)piperazin-1-yl]-1,4-dihydro-4-oxoquinoline-3-carboxylic acid] | 155 | 0.06 µg/mL (≈ 0.109 µM) | – | – | – |
| COc1ccccc1N1CCN(c2c(F)cc3c(=O)c(C(=O)O)cn(CCF)c3c2OC)CC1 [Example 70] | 20 | 0.5 µg/mL (≈ 1.06 µM) | – | – | – |
| CC(C)(C)n1cc(C(=O)O)c(=O)c2cc(F)c(N3CCN(c4ncccn4)CC3)cc21 [Example 95] | > 62 | 0.4 µg/mL (≈ 0.94 µM) | – | – | – |
| Cn1cc(C(=O)O)c(=O)c2cc(F)c(N3CCN(c4ncccn4)CC3)c(OC(F)F)c21 [Example 24, 6-fluoro-8-difluoromethoxy-1-methyl-7-[4-(2-pyrimidinyl)piperazin-1-yl]-1,4-dihydro-4-oxoquinoline-3-carboxylic acid] | 257 | 0.07 µg/mL (≈ 0.156 µM) | – | – | – |
| O=C(O)c1cn(C2CC2)c2c(OC(F)F)c(N3CCN(c4ncccn4)CC3)c(F)cc2c1=O [Example 18, 1-cyclopropyl-6-fluoro-8-difluoromethoxy-7-[4-(2-pyrimidinyl)piperazin-1-yl]-1,4-dihydro-4-oxoquinoline-3-carboxylic acid] | 121 | 0.07 µg/mL (≈ 0.147 µM) | – | – | – |
| CC1COc2c(N3CCN(c4ccccn4)CC3)c(F)cc3c(=O)c(C(=O)O)cn1c23 (stereo not drawn) [Example 85] | 17 | 1 µg/mL (≈ 2.36 µM) | – | – | – |
| CCn1cc(C(=O)O)c(=O)c2cc(F)c(N3CCNCC3)cc21 [Norfloxacin, reference compound] | – | – | little or no anti-HIV activity | anti-HIV activity | – |
| COc1ccccc1N1CCN(c2c(F)c(N)c3c(=O)c(C(=O)O)cn(C(C)C)c3c2OC(F)F)CC1 [Example 29] | 22 | 0.05 µg/mL (≈ 0.0961 µM) | – | – | – |
| O=C(O)c1cn(C2CC2)c2c(OC(F)F)c(N3CCN(c4ncc(Cl)cn4)CC3)c(F)cc2c1=O [Example 19] | 57 | 0.07 µg/mL (≈ 0.137 µM) | – | – | – |
| CCn1cc(C(=O)O)c(=O)c2ccc(N3CCN(c4ncccn4)CC3)c(OC(F)F)c21 [Example 99, 1-ethyl-8-difluoromethoxy-7-[4-(2-pyrimidinyl)piperazin-1-yl]-1,4-dihydro-4-oxoquinoline-3-carboxylic acid] | > 25 | 1 µg/mL (≈ 2.25 µM) | – | – | – |
| COc1ccccc1N1CCN(c2c(F)cc3c(=O)c(C(=O)O)cn(C)c3c2OC(F)F)CC1 [Example 23, 6-fluoro-8-difluoromethoxy-1-methyl-7-[4-(2-methoxyphenyl)piperazin-1-yl]-1,4-dihydro-4-oxoquinoline-3-carboxylic acid] | 309 | 0.021 µg/mL (≈ 0.044 µM) | – | – | – |
| CCn1cc(C(=O)O)c(=O)c2cc(F)c(N3CCN(c4ccccc4OC)CC3)c(OC(F)F)c21 [Example 63, 1-ethyl-6-fluoro-8-difluoromethoxy-7-[4-(2-methoxyphenyl)piperazin-1-yl]-1,4-dihydro-4-oxoquinoline-3carboxylic acid] | 1000 | 0.01 µg/mL (≈ 0.0203 µM) | – | – | – |
| CCn1cc(C(=O)O)c(=O)c2cc(F)c(N3CCNCC3)nc21 [Enoxacin, reference compound] | – | – | little or no anti-HIV activity | anti-HIV activity | – |

From patent US5519016A, “Aryl group- or aromatic heterocyclic group-substituted aminoquinolone derivatives and anti-HIV agent” (priority 1992, dated 1996)
